Measured values published in ChEMBL document CHEMBL1153154, “A single step purification for autolytic zinc proteinases” (Bioorg Med Chem Lett, 2010).
pKd: −log10 of the molar value.

Assays:
Stromelysin-1 [1] = target: T1, Stromelysin-1 (Homo sapiens, UniProt P08254); assay: Binding affinity to stromelysin-1 catalytic domain
Stromelysin-1 [2] = target: T1, Stromelysin-1; assay: Binding affinity to stromelysin-1 catalytic domain expressed in Escherichia coli BL21 (DE3) by isothermal titration […]

T1 sequence (P08254 whole entry, the tested form may be a part): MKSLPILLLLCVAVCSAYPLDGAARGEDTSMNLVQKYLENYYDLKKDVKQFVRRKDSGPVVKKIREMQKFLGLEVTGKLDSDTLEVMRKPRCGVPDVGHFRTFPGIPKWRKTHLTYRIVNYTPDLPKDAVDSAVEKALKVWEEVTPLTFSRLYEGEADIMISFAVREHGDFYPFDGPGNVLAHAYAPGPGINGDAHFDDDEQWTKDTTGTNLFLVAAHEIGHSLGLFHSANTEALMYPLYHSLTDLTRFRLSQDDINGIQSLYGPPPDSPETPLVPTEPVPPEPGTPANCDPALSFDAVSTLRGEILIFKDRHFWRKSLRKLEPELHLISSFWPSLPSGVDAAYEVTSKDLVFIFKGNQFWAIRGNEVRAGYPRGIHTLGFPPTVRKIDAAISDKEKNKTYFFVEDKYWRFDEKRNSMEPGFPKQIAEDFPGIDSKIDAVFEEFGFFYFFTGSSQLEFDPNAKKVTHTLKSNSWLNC

pKd (Stromelysin-1 [1])	pKd (Stromelysin-1 [2])	Structure (SMILES)
4.96	4.77	N#Cc1ccc(-c2ccc(OCCCCC(=O)NO)cc2)cc1
7.00	6.96	N#Cc1ccc(-c2ccc(OCCC(=O)NO)cc2)cc1
6.95	7.37	COc1ccc(S(=O)(=O)N[C@@H](C(=O)NO)C(C)C)cc1
